Read-outs that look alike come from different tables or passages of the source.
Experiments:
[1] = tested on: rgSARS-CoV-2 with 3CL^pro mutations; format: cell-based, SARS-CoV-2
SARS-CoV-2 variants = assay: microbe, parasite or virus in culture; format: cell-based
[2] = tested on: SARS-CoV-2 Omicron strains; assay: microbe, parasite or virus in culture; format: cell-based; settings: Severe acute respiratory syndrome coronavirus 2, Epithelial cell, read-out: EC90 against the Omicron variants in hAECs
SARS-CoV-2 3CL^pro = SARS-CoV-2 3CL^pro (Severe acute respiratory syndrome coronavirus 2, UniProt P0DTD1); assay: biochemical; format: biochemical

Structure (SMILES): CC(C)(C)[C@H](NC(=O)C(F)(F)F)C(=O)N1C[C@H]2[C@@H]([C@H]1C(=O)N[C@H](C#N)C[C@@H]1CCNC1=O)C2(C)C [nirmatrelvir, reference compound]
- EC50 [1]: 3150 ± 1010 nM

Structure (SMILES): Cn1cnc(Cn2c(=O)[nH]/c(=N\c3cc4cn(C)nc4cc3Cl)n(Cc3cc(F)c(F)cc3F)c2=O)n1 [ensitrelvir]
- EC50 (SARS-CoV-2 variants): 259 ± 41 nM

Structure (SMILES): CCC(CC)COC(=O)[C@H](C)N[P@](=O)(OC[C@H]1O[C@@](C#N)(c2ccc3c(N)ncnn23)[C@H](O)[C@@H]1O)Oc1ccccc1 [remdesivir]
- EC50 [1]: 2010 ± 80 nM

Structure (SMILES): N#CCn1c(N2CC3(C2)CC(F)(F)C3)c(-c2ccc(F)c(Cl)c2)c(=O)n(-c2cncc(Cl)c2)c1=O [Compound 17, [5-(3-Chloro-4-fluorophenyl)-3-(5-chloropyridin-3-yl)-6-(6,6-difluoro-2-azaspiro[3.3]-heptan-2-yl)-2,4-dioxo-3,4-dihydropyrimidin-1(2H)-yl]-acetonitrile]
- EC50 (SARS-CoV-2 variants; Severe acute respiratory syndrome coronavirus 2, VeroE6/TMPRSS2, read-out: EC50 against various SARS-CoV-2 variants): 2.27 to 12.5 nM
- EC90 [2]: 2.31 to 2.41 nM

Structure (SMILES): Cc1cncc(-n2c(=O)c(Cc3cc(F)c(F)c(F)c3)c(N3CCCC3)n(CC#N)c2=O)c1 [Compound 5, 2-(3-(5-Methylpyridin-3-yl)-2,4-dioxo-6-(pyrrolidin-1-yl)-5-(3,4,5-trifluorobenzyl)-3,4-dihydropyrimidin-1(2H)-yl)-acetonitrile]
- decrease in activity versus compound 4 (SARS-CoV-2 3CL^pro): > 10 -fold

Reference: PMC12557365 (Journal of Medicinal Chemistry, 2025)
